Measurements reported in paper PMC9554468, “Assessing potency and binding kinetics of soluble adenylyl cyclase (sAC) inhibitors to maximize therapeutic potential” (Frontiers in Physiology, 2022).
pIC50: −log10 of the molar value. “And” between values parts separate entries of the source, which are not always exact repeats. Equal values may be shown once.

Target: T1, sAC in 4-4 cells (HEK293 cells that stably overexpress sACt) (Rattus norvegicus, UniProt Q9Z286)
T1 construct: HEK293 cells that stably overexpress sACt; expressed in transfected cells
T1 sequence (Q9Z286 1-469 limits assumed): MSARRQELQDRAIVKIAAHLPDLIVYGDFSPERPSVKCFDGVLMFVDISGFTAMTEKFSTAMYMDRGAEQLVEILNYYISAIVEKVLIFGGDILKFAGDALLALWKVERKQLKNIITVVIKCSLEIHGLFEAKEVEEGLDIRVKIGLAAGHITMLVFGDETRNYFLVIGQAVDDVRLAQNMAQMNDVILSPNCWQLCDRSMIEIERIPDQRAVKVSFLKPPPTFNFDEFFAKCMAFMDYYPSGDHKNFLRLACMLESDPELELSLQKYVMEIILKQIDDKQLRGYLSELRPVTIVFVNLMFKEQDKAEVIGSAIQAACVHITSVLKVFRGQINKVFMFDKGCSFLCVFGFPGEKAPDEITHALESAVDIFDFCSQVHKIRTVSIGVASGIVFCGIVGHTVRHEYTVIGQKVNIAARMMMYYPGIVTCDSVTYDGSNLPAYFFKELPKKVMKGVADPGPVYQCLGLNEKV
Test: cellular adenylyl cyclase activity assay (cAMP accumulation) in sAC overexpressing 4-4 cells
Assay type: cell-based, human
Settings: 10 min preincubation, 500 μM IBMX 5 min, 37°C
Protocol: For the assay, 1 × 10^5 4-4 cells were seeded in each well of a 24-well plate and incubated for 24 h in DMEM+10% FBS media at 37°C/5% CO2. One hour before the assay the media was aspirated and replaced with 300 μL fresh media. Cells were preincubated with sAC inhibitor at the indicated concentrations or vehicle (0.7% DMSO) for 10 min at 37°C. Intracellular cAMP accumulation was initiated by addition of 500 μM IBMX (Sigma-Aldrich), and cAMP was allowed to accumulate for 5-min. Intracellular cAMP was quantitated using the Direct cAMP Elisa kit (Enzo Life Sciences) following manufacturer’s instructions. GraphPad Prism (www.graphpad.com, version 9.3.1) was used for curve fitting of the concentration-response data and determination of IC50 values.
In addition to how tightly an inhibitor binds its target, efficacy against an intracellular enzyme target is also determined by factors that are present only in the context of cells, such as membrane permeability, non-specific protein binding and compound stability in media and inside cells.

pIC50 | Structure (SMILES)
7.80 | Cn1cc(Cc2ccccc2OCCN2CCOCC2)c(-c2cc(Cl)nc(N)n2)n1 [TDI-11155]
7.71 and 7.72 | COC(=O)[C@@H]1COCCN1CCOc1ccccc1Cc1cn(C(F)F)nc1-c1cc(Cl)nc(N)n1 [TDI-11893]
8.64 | COC(=O)[C@H]1COCCN1CCOc1ccccc1Cc1cn(C(F)F)nc1-c1cc(Cl)nc(N)n1 [TDI-11891]
